Test results reported in patent publication US20180352816A1, “COMPOSITION FOR CROP CARE AND PROTECTION” (ALPHA BIOPESTICIDES LIMITED, priority 2015, published 2018).
Read-outs that look alike come from different tables or passages of the source.

Tests used:
E. amylovora = assay: Broth microdilution MIC and FIC index (CLSI protocol)
Method: The antimicrobial activity of the crop defence compositions prepared in above Examples was evaluated through in vitro test of antimicrobial susceptibility with broth microdilution method (CLSI protocol—Clinical and Laboratory Standards Institute).
The Minimum Inhibitory Concentrations (MICs) were determined in multiwell plates.
The determination of synergy was evaluated by using standard protocol and evaluating in particular the FIC index.
The value of FIC index was determined through the following formula:

P. infestans = assay: microbe, parasite or virus in culture; format: cell-based
P. syringae = assay: Broth microdilution MIC and FIC index (CLSI protocol); format: cell-based; details: triplicate
From the text: FIC index>1: no synergistic effect.

Z. tritici = assay: as above; format: cell-based
B. cinerea = assay: as above; format: cell-based
[1] = E. amylovora, broth microdilution, triplicate

In the case of `[Cu+2].[OH-].[OH-]` [Copper hydroxide, copper hydroxide], the MIC (E. amylovora; [1]) is reported as 0.375 mg/mL.

`[Cl-].[Cu+2].[Cu+2].[OH-].[OH-].[OH-]` [Copper oxychloride, copper oxychloride] was tested, and the MIC (P. infestans; P. infestans, broth microdilution, triplicate) was 3.6 mg/mL.

With `CCCCCCCC/C=C\CCCCCCCC(=O)[O-].[K+]` [Potassium oleate] the MIC (P. syringae; Pseudomonas syringae, read-out: MIC) was 30 µg/mL, the MIC (Z. tritici; Zymoseptoria tritici) was 15.1 mg/mL and the MIC (E. amylovora; Erwinia amylovora) was 0.0073 mg/mL. The MIC (B. cinerea; Botrytis cinerea) was 3770 µg/mL and the MIC (P. infestans; Phytophthora infestans) was 0.22 mg/mL.

Work on copper anthranilate yielded an MIC (P. syringae) of 590 µg/mL and an MIC (E. amylovora; [1]) of 0.29 mg/mL.

copper salicylate was tested, and the MIC (Z. tritici; Z. tritici, broth microdilution, triplicate) was 0.235 mg/mL and the MIC (B. cinerea; B. cinerea, broth microdilution, triplicate) was 60 µg/mL.
